# In US9211310B2, “Use of a Chinese medicine composition in preparing medicaments for treating secondary prevention of myocardial infarction” (TASLY PHARMACEUTICAL GROUP CO., LTD, priority 2010, dated 2015):
# Tested on: patients after acute myocardial infarction
# Test: Life quality, Seattle Angina Questionnaire (SAQ), same clinical trial
# Format: in vivo, human
# Source text: 3508 patients who were in accordance with the diagnostic standards of AMI for 28 days to 2 years and differentiated as Qi deficiency and blood stagnation syndrome by TCM were studied. 0.5 g Chinese medicine composition prepared by the method of EXAMPLE 1 (Coded as QSYQ) was administrated half an hour after meal, 3 times per day.
# There were 19 questions in the Seattle angina questionnaire (SAQ), including 5 parts: physical limitation (PL), anginal stability (AS), anginal frequency (AF), treatment satisfaction (TS) and disease perception (DP). After being given necessary explanation by doctors, the questions were answered independently by patients.
# They included the overall survival time, angina pectoris score, TCM symptom score and life quality score, where angina pectoris score, TCM symptom score and life quality score were evaluated at randomization, in 1st, 3rd, 6th, 9th, 12th month after treatment and 18th month after follow-up.
# All evaluation results of SAQ were described during the period of observation, and Wilcoxon rank sum test was used for inter-group comparison.
# The evaluation results in the SAQ were depicted in different observations, and inter-group comparison was tested by Wilcoxon Rank-sum test.
smiles,measurement,setting,value
"CC(=O)Oc1ccccc1C(=O)O [Control group, aspirine]","SAQ 3rd question: ≧4 times per day, cases","3 months after treatment, PP",6
same,"SAQ Question 1-3: Mildly limited, number of patients","3 months after treatment, PP",81
same,"SAQ Question 1-3: Mildly limited, percent of patients","3 months after treatment, PP",(5.51%)
same,"SAQ Question 1-3: Moderately limited, number of patients","3 months after treatment, PP",16
same,"SAQ Question 1-3: Moderately limited, percent of patients","3 months after treatment, PP",(1.09%)
same,"SAQ Question 1-3: Not limited, number of patients","3 months after treatment, PP",1103
same,"SAQ Question 1-3: Not limited, percent of patients","3 months after treatment, PP",(75.03%)
same,"SAQ Question 1-3: Other reason, number of patients","3 months after treatment, PP",8
same,"SAQ Question 1-3: Other reason, percent of patients","3 months after treatment, PP",(0.54%)
same,"SAQ Question 1-3: Severely limited, number of patients","3 months after treatment, PP",5
same,"SAQ Question 1-3: Severely limited, percent of patients","3 months after treatment, PP",(0.34%)
same,"SAQ Question 1-3: Slightly limited, number of patients","3 months after treatment, PP",257
same,"SAQ Question 1-3: Slightly limited, percent of patients","3 months after treatment, PP",(17.48%)
same,"SAQ Question 1-4: Mildly limited, number of patients","3 months after treatment, PP",278
same,"SAQ Question 1-4: Mildly limited, percent of patients","3 months after treatment, PP",(18.95%)
same,"SAQ Question 1-4: Moderately limited, number of patients","3 months after treatment, PP",105
same,"SAQ Question 1-4: Moderately limited, percent of patients","3 months after treatment, PP",(7.16%)
same,"SAQ Question 1-4: Not limited, number of patients","3 months after treatment, PP",559
same,"SAQ Question 1-4: Not limited, percent of patients","3 months after treatment, PP",(38.10%)
same,"SAQ Question 1-4: Other limited, number of patients","3 months after treatment, PP",11
same,"SAQ Question 1-4: Other limited, percent of patients","3 months after treatment, PP",(0.75%)
same,"SAQ Question 1-4: Severely limited, number of patients","3 months after treatment, PP",22
same,"SAQ Question 1-4: Severely limited, percent of patients","3 months after treatment, PP",(1.50%)
same,"SAQ Question 1-4: Slightly limited, number of patients","3 months after treatment, PP",492
same,"SAQ Question 1-4: Slightly limited, percent of patients","3 months after treatment, PP",(33.54%)
same,"SAQ Question 1-5: Mildly limited, number of patients","3 months after treatment, PP",268
same,"SAQ Question 1-5: Mildly limited, percent of patients","3 months after treatment, PP",(18.27%)
same,"SAQ Question 1-5: Moderately limited, number of patients","3 months after treatment, PP",137
same,"SAQ Question 1-5: Moderately limited, percent of patients","3 months after treatment, PP",(9.34%)
same,"SAQ Question 1-5: Not limited, number of patients","3 months after treatment, PP",594
same,"SAQ Question 1-5: Not limited, percent of patients","3 months after treatment, PP",(40.49%)
same,"SAQ Question 1-5: Other reasons, number of patients","3 months after treatment, PP",11
same,"SAQ Question 1-5: Other reasons, percent of patients","3 months after treatment, PP",(0.75%)
same,"SAQ Question 1-5: Severely limited, number of patients","3 months after treatment, PP",16
same,"SAQ Question 1-5: Severely limited, percent of patients","3 months after treatment, PP",(1.09%)
same,"SAQ Question 1-5: Slightly limited, number of patients","3 months after treatment, PP",441
same,"SAQ Question 1-5: Slightly limited, percent of patients","3 months after treatment, PP",(30.06%)
same,"SAQ Question 1-9: Mildly limited, % of cases","3 months after treatment, PP",(18.45%)
same,"SAQ Question 1-9: Mildly limited, cases","3 months after treatment, PP",264
same,"SAQ Question 1-9: Moderately limited, % of cases","3 months after treatment, PP",(20.48%)
same,"SAQ Question 1-9: Moderately limited, cases","3 months after treatment, PP",293
same,"SAQ Question 1-9: Not limited, % of cases","3 months after treatment, PP",(3.70%)
same,"SAQ Question 1-9: Not limited, cases","3 months after treatment, PP",53
same,"SAQ Question 1-9: Other reaons, % of cases","3 months after treatment, PP",(6.08%)
same,"SAQ Question 1-9: Other reaons, cases","3 months after treatment, PP",87
same,"SAQ Question 1-9: Severely limited, % of cases","3 months after treatment, PP",(39.41%)
same,"SAQ Question 1-9: Severely limited, cases","3 months after treatment, PP",564
same,"SAQ Question 1-9: Slightly limited, % of cases","3 months after treatment, PP",(11.88%)
same,"SAQ Question 1-9: Slightly limited, cases","3 months after treatment, PP",170
same,"SAQ 2nd question: 6, % of cases","6 months after treatment, FAS",(0.00%)
same,"SAQ 2nd question: 6, cases","6 months after treatment, FAS",0
same,"SAQ 2nd question: Clearly increased, % of cases","6 months after treatment, FAS",(0.98%)
same,"SAQ 2nd question: Clearly increased, cases","6 months after treatment, FAS",17
same,"SAQ 2nd question: Clearly reduced, % of cases","6 months after treatment, FAS",(22.98%)
same,"SAQ 2nd question: Clearly reduced, cases","6 months after treatment, FAS",400
same,"SAQ 2nd question: Same, % of cases","6 months after treatment, FAS",(37.33%)
same,"SAQ 2nd question: Same, cases","6 months after treatment, FAS",650
same,"SAQ 2nd question: Slightly increased, % of cases","6 months after treatment, FAS",(3.68%)
same,"SAQ 2nd question: Slightly increased, cases","6 months after treatment, FAS",64
same,"SAQ 2nd question: Slightly reduced, % of cases","6 months after treatment, FAS",(35.04%)
same,"SAQ 2nd question: Slightly reduced, cases","6 months after treatment, FAS",610
same,"SAQ 3rd question: 1-2 times per week, % of cases","6 months after treatment, FAS",(35.04%)
same,"SAQ 3rd question: 1-2 times per week, cases","6 months after treatment, FAS",610
same,"SAQ 3rd question: 1-3 times per day, % of cases","6 months after treatment, FAS",(3.68%)
same,"SAQ 3rd question: 1-3 times per day, cases","6 months after treatment, FAS",64
same,"SAQ 3rd question: <1 time per week, % of cases","6 months after treatment, FAS",(22.98%)
same,"SAQ 3rd question: <1 time per week, cases","6 months after treatment, FAS",400
same,"SAQ 3rd question: No onset, % of cases","6 months after treatment, FAS",(0.00%)
same,"SAQ 3rd question: No onset, cases","6 months after treatment, FAS",0
same,"SAQ 3rd question: ≧3 times per week, % of cases","6 months after treatment, FAS",(37.33%)
same,"SAQ 3rd question: ≧3 times per week, cases","6 months after treatment, FAS",650
same,"SAQ 3rd question: ≧4 times per day, % of cases","6 months after treatment, FAS",(0.98%)
same,"SAQ 3rd question: ≧4 times per day, cases","6 months after treatment, FAS",17
same,"SAQ Question 1-3: Mildly limited, number of patients","6 months after treatment, FAS",86
same,"SAQ Question 1-3: Mildly limited, percent of patients","6 months after treatment, FAS",(4.93%)
same,"SAQ Question 1-3: Moderately limited, number of patients","6 months after treatment, FAS",20
same,"SAQ Question 1-3: Moderately limited, percent of patients","6 months after treatment, FAS",(1.15%)
